{"source": "patent US20090318412A1", "about": "“Tricyclic heterocyclic compound and use thereof” (priority 2006, published 2009)", "note": "Structures can show the parent of a compound that is named as a salt."}
{"target": "serotonin 5-HT2C receptor (Homo sapiens, UniProt P28335, I156V/I160V/N158S)", "sequence (P28335 33-458 I156V/N158S/I160V limits assumed)": "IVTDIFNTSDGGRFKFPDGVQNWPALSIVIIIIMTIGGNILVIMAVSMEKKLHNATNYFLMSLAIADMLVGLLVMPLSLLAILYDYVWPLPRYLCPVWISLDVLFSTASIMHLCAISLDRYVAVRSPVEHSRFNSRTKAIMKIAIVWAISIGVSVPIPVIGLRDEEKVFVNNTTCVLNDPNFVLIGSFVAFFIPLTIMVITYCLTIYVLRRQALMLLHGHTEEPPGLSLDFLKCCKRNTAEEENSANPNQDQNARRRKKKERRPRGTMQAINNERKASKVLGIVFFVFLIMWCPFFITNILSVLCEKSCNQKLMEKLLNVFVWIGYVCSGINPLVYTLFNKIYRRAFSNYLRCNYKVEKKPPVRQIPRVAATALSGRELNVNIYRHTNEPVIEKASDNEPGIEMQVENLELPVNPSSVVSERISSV", "assay": "cell-based", "settings": "CHO, read-out: ratio to maximum response by 5-HT", "units": {"Emax": "%"}}
{"smiles": "O=C1c2cccc(Cl)c2OCC2CNCCN12", "note": "(stereo not drawn) [Example 3, 10-chloro-1,2,3,4,12,12a-hexahydro-6H-pyrazino[2,1-c][1,4]benzoxazepin-6-one hydrochloride]", "Emax": 98.2}
{"smiles": "O=C1c2c(cccc2C(F)(F)F)OCC2CNCCN12", "note": "(stereo not drawn) [Example 42, 7-(trifluoromethyl)-1,2,3,4,12,12a-hexahydro-6H-pyrazino[2,1-c][1,4]benzoxazepin-6-one hydrochloride]", "Emax": 88.4}
{"smiles": "O=C1c2c(Cl)cccc2OCC2CNCCN12", "note": "(stereo not drawn) [Example 4, 7-chloro-1,2,3,4,12,12a-hexahydro-6H-pyrazino[2,1-c][1,4]benzoxazepin-6-one hydrochloride]", "Emax": 94.6}
{"smiles": "O=C1c2cc(Cl)ccc2OCC2CNCCN12", "note": "(stereo not drawn) [Example 6, 8-chloro-1,2,3,4,12,12a-hexahydro-6H-pyrazino[2,1-c][1,4]benzoxazepin-6-one hydrochloride]", "Emax": 99.4}
{"smiles": "O=C1c2c(Br)cccc2OCC2CNCCN12", "note": "(stereo not drawn) [Example 41, 7-bromo-1,2,3,4,12,12a-hexahydro-6H-pyrazino[2,1-c][1,4]benzoxazepin-6-one hydrochloride]", "Emax": 96}
{"smiles": "Cc1ccc2c(c1)C(=O)N1CCNCC1CO2", "note": "(stereo not drawn) [Example 13, 8-methyl-1,2,3,4,12,12a-hexahydro-6H-pyrazino[2,1-c][1,4]benzoxazepin-6-one hydrochloride]", "Emax": 96.9}
{"smiles": "c1ccc2c(c1)CN1CCNCC1CO2", "note": "(stereo not drawn) [Example 2, 1,2,3,4,12,12a-hexahydro-6H-pyrazino[2,1-c][1,4]benzoxazepine dihydrochloride]", "Emax": 116}
{"smiles": "Cc1cccc2c1OCC1CNCCN1C2=O", "note": "(stereo not drawn) [Example 37, 10-methyl-1,2,3,4,12,12a-hexahydro-6H-pyrazino[2,1-c][1,4]benzoxazepin-6-one hydrochloride]", "Emax": 98.3}
{"smiles": "O=C1c2ccc(Cl)cc2OCC2CNCCN12", "note": "(stereo not drawn) [Example 5, 9-chloro-1,2,3,4,12,12a-hexahydro-6H-pyrazino[2,1-c][1,4]benzoxazepin-6-one hydrochloride]", "Emax": 101}
{"smiles": "O=C1c2cc(C(F)(F)F)ccc2OCC2CNCCN12", "note": "(stereo not drawn) [Example 8, 8-(trifluoromethyl)-1,2,3,4,12,12a-hexahydro-6H-pyrazino[2,1-c][1,4]benzoxazepin-6-one hydrochloride]", "Emax": 96.5}
{"smiles": "FC(F)(F)c1ccc2c(c1)CN1CCNCC1CO2", "note": "(stereo not drawn) [Example 9, 8-(trifluoromethyl)-1,2,3,4,12,12a-hexahydro-6H-pyrazino[2,1-c][1,4]benzoxazepine dihydrochloride]", "Emax": 91.5}
{"smiles": "COc1ccc2c(c1)C(=O)N1CCNCC1CO2", "note": "(stereo not drawn) [Example 31, 8-methoxy-1,2,3,4,12,12a-hexahydro-6H-pyrazino[2,1-c][1,4]benzoxazepin-6-one hydrochloride]", "Emax": 93.8}
{"smiles": "Clc1ccc2c(c1)CN1CCNCC1CO2", "note": "(stereo not drawn) [Example 7, 8-chloro-1,2,3,4,12,12a-hexahydro-6H-pyrazino[2,1-c][1,4]benzoxazepine dihydrochloride]", "Emax": 107}
{"smiles": "O=C1c2ccccc2OCC2CNCCN12", "note": "(stereo not drawn) [Example 1, 1,2,3,4,12,12a-hexahydro-6H-pyrazino[2,1-c][1,4]benzoxazepin-6-one hydrochloride]", "Emax": 114}
{"smiles": "O=C1c2cc(Br)ccc2OCC2CNCCN12", "note": "(stereo not drawn) [Example 10, 8-bromo-1,2,3,4,12,12a-hexahydro-6H-pyrazino[2,1-c][1,4]benzoxazepin-6-one hydrochloride]", "Emax": 107}
